Like-named read-outs stand apart in the source and are kept apart here.
Assays:
B. subtilis 168a = test: MIC/MBC microbroth dilution (EUCAST); assay type: cell-based, Bacillus subtilis
Procedure: (§1) Minimum inhibitory concentrations (MIC values) were obtained using the microbroth dilution method as stated in the EUCAST guidelines. Tests were conducted on cation adjusted Mueller–Hinton broth (caMHB) or agar (caMHA). These were prepared and stored following the manufacturer’s guidelines. Biological organisms were prepared via growth on either Luria–Bertani (LB) or cation adjusted Mueller–Hinton agar plates. These were grown for 24 h at 37 °C, except for Micrococcus luteus where MICs took longer to grow and as a consequence were read after 48 h once a clear positive control could be observed. For the MIC experiment, the bacteria were prepared using the McFarland 0.5 standard and diluted 1 in 100 or 1 in 10 in caMHB following EUCAST and CSLI guidelines for the preparation of bacteria. Testing of the compounds using the microbroth dilution method took place in 96-well plates. Serial 2-fold dilutions of compounds in caMHB covering a range from 256 µg/mL to 0.25 µg/mL were prepared. Bacteria preparations (McFarland) were added to the compound dilutions, further halving the compound concentrations. The plate was then incubated for 18 h at 37 °C. Controls for the MIC experiments included a bacterial growth (positive) control of bacteria and caMHB only and a media only (negative) control. After incubation, the plates were read, whereby the positive control of bacteria was visible and the negative control was clear of contamination. The last clear well, where there is no growth of bacteria, was counted as the MIC value. […] The lowest concentration without any bacterial growth was counted as the MBC value. The following pathogens were used: Pseudomonas aeruginosa NCTC 13437, Escherichia coli NCTC 13353, Bacillus subtilis 168a, Serratia marcescens NCTC 9940, Micrococcus luteus ATCC 10240, Staphylococcus aureus JE2 USA 300, Acinetobacter baumannii ATCC 19606, and Klebsiella pneumoniae ATCC 700603. A concentration range of 256 µg/mL to 0.25 µg/mL of a combination of ciprofloxacin and meropenem against E. coli 25922 was used as an antibiotic control to ensure correct dilution and performance of the assay.

[1] = Resazurin-based in vitro cytotoxicity with HepG2 cells; assay type: cell-based, human; conditions: HepG2 cells; human hepatocarcinoma cells, 48 h
Procedure: The HepG2 cells were washed with DPBS (Dulbecco’s PBS without calcium and magnesium, Gibco, Cat #21600-044) and trypsinized with trypsin solution in DPBS. Trypsinization was stopped by adding culture medium, and after being stained with Trypan Blue (SORS Ukraine) cells were counted using a counting chamber (Hausser Scientific, Cat #3500). The cell suspension was placed in a falcon tube containing plating medium DMEM/High glucose with 1% fetal bovine serum, 100 units/mL penicillin, and 100 µg/mL streptomycin. Cells at a density of 250,000 cells/mL were seeded in sterile 384-well plates (Greiner Bio-One, Cat #781091) in a volume of […] and incubated at 37 °C and 5% CO2. Serial dilutions of ten 3-fold dilution steps of test and reference compounds covering a range from 100.0 to 0.005 µM were added to the wells, followed by incubation at 37 °C and 5% CO2 for 48 h. Then, resazurin (50 µM final concentration) was added and plates were incubated for another 3 h. The plates were read with a SpectraMax microplate reader (Molecular Devices Cooperation, Sunnyvale, CA, USA)) using an extinction wavelength of 555 nm and an emission wavelength of 570 nm. IC50 values were calculated using GraphPad Prism 9.0 charting software. Doxorubicin (Sigma Aldrich D1515) was used as control.

[2] = Resazurin-based in vitro cytotoxicity with L-6 cells; assay type: cell-based, rat; conditions: rat
Procedure: Serial drug dilutions of eleven 3-fold dilution steps covering a range from 100 to 0.002 µg/mL were prepared. After 70 h of incubation, the plates were inspected under an inverted microscope to assure growth of the controls and sterile conditions. […] The plates were read with a Spectramax Gemini XS microplate fluorometer (Molecular Devices Cooperation, Sunnyvale, CA, USA) using an excitation wavelength of 536 nm and an emission wavelength of 588 nm. IC50 values were calculated by linear regression from the sigmoidal dose–inhibition curves using SoftmaxPro software Version 8.2.1 (Molecular Devices Cooperation, Sunnyvale, CA, USA). Podophyllotoxin (Sigma P4405) was used as control.

M. luteus ATCC 10240 = test: MIC/MBC microbroth dilution (EUCAST); assay type: cell-based, Micrococcus luteus
Procedure: as §1

S. aureus JE2 USA 300 = test: MIC/MBC microbroth dilution (EUCAST); assay type: cell-based; conditions: Staphylococcus aureus, USA300, S. aureus JE2 USA 300
Procedure: as §1

[3] = tested on: K. pneumoniae ATCC 700603; test: MIC/MBC microbroth dilution (EUCAST); assay type: cell-based; conditions: Klebsiella pneumoniae, ATCC700603
Procedure: as §1

S. marcescens NCTC 9940 = test: MIC/MBC microbroth dilution (EUCAST); assay type: cell-based; conditions: Serratia marcescens, NCTC9940
Procedure: as §1

P. aeruginosa NCTC 13437 = test: MIC/MBC microbroth dilution (EUCAST); assay type: cell-based; conditions: Pseudomonas aeruginosa, NCTC13437
Procedure: as §1

[4] = Parallel artificial membrane permeability assay (PAMPA); conditions: PAMPA, PBS pH 7.4, 200 µM, 5 h, room temperature; for Papp at 5 h, 200 µM: pH 7.4, Pe
Procedure: With the high-throughput PAMPA the newly synthesized compounds were tested for their passive permeability through cell membranes without the influence of efflux pumps or transporter proteins. The assay was performed using a Corning® Gentest^TM Precoated PAMPA Plate System (Corning, Glendale, AZ, USA) with 96-well polystyrene plates. The bottom of the acceptor plate consists of a porous membrane, whereby the pores are lined with a lipid–oil–lipid triple layer. Stock solutions of each test compound at 10 mM were prepared in DMSO or methanol and diluted with phosphate-buffered saline (PBS at a pH of 7.4) to a final concentration of 200 µM. […] The donor plate (bottom plate) was filled with the compound solutions, whereby all compounds were tested in quadruplicates. Each well of the acceptor plate (top plate) was filled with PBS buffer. Donor and acceptor plates were combined and incubated at room temperature for 5 h. After that, the plates were separated and 150 µL of each well of both plates were transferred to 96-well UV plates (Greiner Bio-One). Absorption at different wavelengths covering a range from 200 to 300 nm was measured using a SpectraMax M3 UV plate reader. […] The plates were analyzed at the wavelength where the R2 value of the calibration curve was higher than 0.99 [47].
Recovery of compounds from donor and acceptor wells (mass retention) was calculated as shown in the equation below. Data were only accepted when recovery exceeded 70%. The equation is as follows:(3) R=1−[cDt×VD+cAt×VA]/(c0×VD) where

E. coli NCTC 13353 = test: MIC/MBC microbroth dilution (EUCAST); assay type: cell-based, Escherichia coli; conditions: for MBC: NCTC13353
Procedure: as §1

A. baumannii ATCC 19606 = test: MIC/MBC microbroth dilution (EUCAST); assay type: cell-based, Acinetobacter baumannii; conditions: for MBC: ATCC19606
Procedure: as §1

P. falciparum NF54 = test: In vitro microplate assay against P. falciparum NF54 (3H-hypoxanthine incorporation); assay type: cell-based, Plasmodium falciparum; conditions: read-out: P.f.NF54 IC50
Procedure: Serial drug dilutions of eleven 3-fold dilution steps covering a range from 100 to 0.002 µg/mL were prepared. […] After 48 h of incubation time, 0.05 mL of ^3H-hypoxanthine (=0.5 µCi) was added to each well of the plate. The plates were incubated for a further 24 h under the same conditions. Plates were then harvested using a BetaplateTM cell harvester (Wallac, Zurich, Switzerland). Red blood cells were transferred onto a glass fiber filter and then washed with distilled aqua demin. The dried filters were inserted into a plastic foil with 10 mL of scintillation fluid and counted in a BetaplateTM liquid scintillation counter (Wallac, Zurich, Switzerland). IC50 values were calculated from sigmoidal inhibition curves by linear regression using Microsoft Excel. […] Louis, MO, USA) was used as control.

[5] = Bacillus subtilis, 168A, read-out: MIC
[6] = Micrococcus luteus, ATCC10240, M. luteus ATCC 10240, read-out: MBC
[7] = Micrococcus luteus, ATCC10240, M. luteus ATCC 10240, read-out: MIC
[8] = Escherichia coli, NCTC13353, read-out: MIC
[9] = Acinetobacter baumannii, ATCC19606, read-out: MIC
[10] = Plasmodium falciparum, NF54, chloroquine-sensitive strain NF54, erythrocytic stages

Compound | MBC (B. subtilis 168a; Bacillus subtilis, 168A) | MIC (B. subtilis 168a; [5]) | IC50 at 48 h [1] | IC50 at 70 h [2] | MBC (M. luteus ATCC 10240; [6]) | MIC (M. luteus ATCC 10240; [7]) | MBC (S. aureus JE2 USA 300) | MIC (S. aureus JE2 USA 300) | MBC [3] | MIC [3] | MBC (S. marcescens NCTC 9940) | MIC (S. marcescens NCTC 9940) | MBC (P. aeruginosa NCTC 13437) | MIC (P. aeruginosa NCTC 13437) | Papp at 5 h, 200 µM [4] | MBC (E. coli NCTC 13353; Escherichia coli) | MIC (E. coli NCTC 13353; [8]) | MBC (A. baumannii ATCC 19606; Acinetobacter baumannii) | MIC (A. baumannii ATCC 19606; [9]) | IC50 (P. falciparum NF54; [10]) | also measured
CN1CCN(C(=O)c2cccc(C(F)(F)F)c2Oc2ccc(F)cc2)CC1 [Compound 49, [2-(4-Fluorophenoxy)-3-(trifluoromethyl)phenyl](4-methylpiperazin-1-yl)methanon] | > 256 µg/mL | 256 µg/mL | > 100 µM | 137 µM | 256 µg/mL | 256 µg/mL | > 256 µg/mL | > 256 µg/mL | > 256 µg/mL | > 256 µg/mL | > 256 µg/mL | > 256 µg/mL | > 256 µg/mL | 256 µg/mL | 8.5 ×10⁻⁶ cm/s | > 256 µg/mL | 256 µg/mL | > 256 µg/mL | 256 µg/mL | 55.2 µM | 
O=C(c1cccc(C(F)(F)F)c1Oc1ccc(F)cc1)N1CCOCC1 [Compound 51, [2-(4-Fluorophenoxy)-3-(trifluoromethyl)phenyl](morpholin-4-yl)methanon] | > 256 µg/mL | 256 µg/mL | > 100 µM | 154 µM | 128 µg/mL | 256 µg/mL | > 256 µg/mL | > 256 µg/mL | > 256 µg/mL | > 256 µg/mL | > 256 µg/mL | > 256 µg/mL | > 256 µg/mL | > 256 µg/mL | 10.4 ×10⁻⁶ cm/s | > 256 µg/mL | > 256 µg/mL | 256 µg/mL | 256 µg/mL | 81.1 µM | 
O=C(Nc1ccccc1N1CCNCC1)c1cccc(C(F)(F)F)c1Sc1ccc(F)cc1 [Compound 55, 2-[(4-Fluorophenyl)sulfanyl]-N-[2-(piperazin-1-yl)phenyl]-3-(trifluoromethyl)benz-amide] |  | 16 to 64 µg/mL | 4.6 µM | 7.06 µM | 16 to 64 µg/mL | 16 to 64 µg/mL |  |  | > 256 µg/mL | > 256 µg/mL | > 256 µg/mL | 256 µg/mL | > 256 µg/mL | 256 µg/mL | 4.41 ×10⁻⁶ cm/s | 64 µg/mL | 32 to 64 µg/mL | 64 µg/mL | 32 to 64 µg/mL | 0.692 µM | MIC (B. subtilis 168a): 32 µg/mL; MBC (M. luteus ATCC 10240; M. luteus ATCC 10240): 16 µg/mL; MIC (M. luteus ATCC 10240; M. luteus ATCC 10240): 16 µg/mL; Pe [4]: 6.51 10^−6 cm/s; MIC (E. coli NCTC 13353): 64 µg/mL; MIC (A. baumannii ATCC 19606): 32 µg/mL; IC50 (P. falciparum NF54; chloroquine-sensitive strain NF54, erythrocytic stages): 0.69 µM
